Laboratory results as given in ChEMBL document CHEMBL1201862, “PubChem BioAssay data set” (2004).
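Cells were grown in 96-well plates and exposed to each compound for 48 hours at five concentrations; endpoints were interpolated linearly between bracketing concentrations, or set to the highest concentration if not reached. GI50 = concentration required for 50% inhibition of growth.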 Active and inactive are the calls of the source. No stated cut-off is given here; in the data, active = GI50 up to about 1.1 µM and inactive = higher. Starred links: 1 amine or outer side, 2 acyl side, 3 side chain; linkers in the order of their positions; H or OH if unused. Positions of bridges follow the written chain, without caps; N, C: chain ends. Non-standard residues stand in square brackets, D forms with d. Residues, ends and D or L forms follow the SMILES beside them. Chains are numbered I, II in the order given. Actinocin(1to9) = Cc1c2oc3c(C)ccc(C(=O)[*:2])c3nc-2c(C(=O)[*:1])c(N)c1=O; aThr = C[C@H](O)[C@H](N)C(=O)O; NMeV = CN[C@H](C(=O)O)C(C)C; Sar = CNCC(=O)O

Assays:
Test in all cases: NCI anticancer screen, dose series, 48 h
SF-268 = tested on: SF-268
HCC 2998 = tested on: HCC 2998
HL-60 = tested on: HL-60
K562 = tested on: K562
Hs-578T = tested on: Hs-578T
NCI-H23 = tested on: NCI-H23
DU-145 = tested on: DU-145
IGROV-1 = tested on: IGROV-1
ACHN = tested on: ACHN
NCI-H522 = tested on: NCI-H522
OVCAR-3 = tested on: OVCAR-3
HT-29 = tested on: HT-29
HOP-62 = tested on: HOP-62
SF-295 = tested on: SF-295
UO-31 = tested on: UO-31
NCI-H460 = tested on: NCI-H460
SK-MEL-5 = tested on: SK-MEL-5
PC-3 = tested on: PC-3
SK-MEL-2 = tested on: SK-MEL-2
SW-620 = tested on: SW-620

Compound | GI50 (SF-268) | GI50 (HCC 2998) | GI50 (HL-60) | GI50 (K562) | GI50 (Hs-578T) | GI50 (NCI-H23) | GI50 (DU-145) | GI50 (IGROV-1) | GI50 (ACHN) | GI50 (NCI-H522) | GI50 (OVCAR-3) | GI50 (HT-29) | GI50 (HOP-62) | GI50 (SF-295) | GI50 (UO-31) | GI50 (NCI-H460) | GI50 (SK-MEL-5) | GI50 (PC-3) | GI50 (SK-MEL-2) | GI50 (SW-620)
O=C1C(=C(I)I)c2ccccc2-c2ccccc21 | 6.71 µM (inactive) | 2.51 µM (inactive) | 0.998 µM (active) | 1.85 µM (inactive) | 7.83 µM (inactive) | 5.07 µM (inactive) | 3.67 µM (inactive) | 6.07 µM (inactive) | 2.32 µM (inactive) | 1.04 µM (active) | 1.74 µM (inactive) | 3.21 µM (inactive) | 11.9 µM (inactive) | 16.6 µM (inactive) | 2.1 µM (inactive) | 14.6 µM (inactive) | 5.37 µM (inactive) | 3.71 µM (inactive) | 6.31 µM (inactive) | 1.63 µM (inactive)
COc1ccc(-c2cc(-c3ccccc3)n(C3OCC(OC(C)=O)C(OC(C)=O)C3OC(C)=O)c(=S)c2C#N)cc1 (stereo not given) | > 100 µM (inactive) | > 100 µM (inactive) | > 100 µM (inactive) | > 100 µM (inactive) | 15.3 µM (inactive) | > 100 µM (inactive) | > 100 µM (inactive) | > 100 µM (inactive) | 37.4 µM (inactive) | 66.5 µM (inactive) | > 100 µM (inactive) | > 100 µM (inactive) | > 100 µM (inactive) | 56.4 µM (inactive) | 28.6 µM (inactive) | 9.42 µM (inactive) | > 100 µM (inactive) | > 100 µM (inactive) | 25 µM (inactive) | > 100 µM (inactive)
COC(=O)C(C)(/N=C/c1ccccc1)c1ccccc1 (stereo not given) | > 100 µM (inactive) | > 100 µM (inactive) | > 100 µM (inactive) | > 100 µM (inactive) | > 100 µM (inactive) | > 100 µM (inactive) | > 100 µM (inactive) | > 100 µM (inactive) | > 100 µM (inactive) | > 100 µM (inactive) | > 100 µM (inactive) | > 100 µM (inactive) | > 100 µM (inactive) | > 100 µM (inactive) | > 100 µM (inactive) | > 100 µM (inactive) | > 100 µM (inactive) | > 100 µM (inactive) | > 100 µM (inactive) | > 100 µM (inactive)
CC(=O)OC(CC(C)C)P1(=O)N(CC(C)(C)C)[C@@H]2CCCC[C@H]2N1CC(C)(C)C (stereo not given in full) | 15.1 µM (inactive) | 6.38 µM (inactive) | 5.71 µM (inactive) | 8.47 µM (inactive) | 9.75 µM (inactive) | 10.2 µM (inactive) | 15.3 µM (inactive) | 11.7 µM (inactive) | 7.28 µM (inactive) | 6.4 µM (inactive) | 9.23 µM (inactive) | 7.1 µM (inactive) | 14.6 µM (inactive) | 7.5 µM (inactive) | 8.65 µM (inactive) | 8.57 µM (inactive) | 9.4 µM (inactive) | 3.73 µM (inactive) | 7.6 µM (inactive) | 11.3 µM (inactive)
COc1ccc(-c2nc(N)n(C)c2SSc2c(-c3ccc(OC)cc3)nc(N)n2C)cc1 | 12.6 µM (inactive) | 17.8 µM (inactive) | 2.59 µM (inactive) | 2.83 µM (inactive) | 9.16 µM (inactive) | 5.14 µM (inactive) | 17.3 µM (inactive) | 14.3 µM (inactive) | 3.94 µM (inactive) | 1.81 µM (inactive) | 7.23 µM (inactive) | 9.59 µM (inactive) | 17.5 µM (inactive) | 11.6 µM (inactive) | 5.25 µM (inactive) | 20.8 µM (inactive) | 2.08 µM (inactive) | 6.34 µM (inactive) | 15.6 µM (inactive) | 2.23 µM (inactive)
N=C(N)SCc1cc(Cl)cc(Cl)c1O | 21.8 µM (inactive) | 17.7 µM (inactive) | 3.21 µM (inactive) | 19.8 µM (inactive) | 20.4 µM (inactive) | 19 µM (inactive) | 17.6 µM (inactive) | 18.5 µM (inactive) | 19.5 µM (inactive) | 15.9 µM (inactive) | 17.2 µM (inactive) | 16 µM (inactive) | 18.8 µM (inactive) | 25.5 µM (inactive) | 15.5 µM (inactive) | 18.1 µM (inactive) | 16.6 µM (inactive) | 19.3 µM (inactive) | 18.2 µM (inactive) | 20.7 µM (inactive)
CCOC(=O)NC(Nc1ccc(OC(F)(F)F)cc1)(C(F)(F)F)C(F)(F)F | > 100 µM (inactive) | > 100 µM (inactive) | > 100 µM (inactive) | > 100 µM (inactive) | > 100 µM (inactive) | > 100 µM (inactive) | > 100 µM (inactive) | > 100 µM (inactive) | > 100 µM (inactive) | > 100 µM (inactive) | > 100 µM (inactive) | > 100 µM (inactive) | > 100 µM (inactive) | > 100 µM (inactive) | > 100 µM (inactive) | > 100 µM (inactive) | > 100 µM (inactive) | > 100 µM (inactive) | > 100 µM (inactive) | > 100 µM (inactive)
O=C1CSC(c2cccc([N+](=O)[O-])c2)N1c1ccc(-n2c(-c3ccccc3)nc3ccccc3c2=O)cc1 (stereo not given) | 99.3 µM (inactive) | 63.7 µM (inactive) | > 100 µM (inactive) | > 100 µM (inactive) | 78.2 µM (inactive) | > 100 µM (inactive) | > 100 µM (inactive) | > 100 µM (inactive) | > 100 µM (inactive) | > 100 µM (inactive) | > 100 µM (inactive) | > 100 µM (inactive) | > 100 µM (inactive) | > 100 µM (inactive) | 3.76 µM (inactive) | > 100 µM (inactive) | > 100 µM (inactive) | > 100 µM (inactive) | 56.9 µM (inactive) | > 100 µM (inactive)
C=C1C(=O)O[C@@H]2[C@@H]3O[C@@H](C[C@@H]13)[C@](C)(O)CC/C=C(\C)CCC[C@@H]2C | 16.9 µM (inactive) | 17.7 µM (inactive) | 2.8 µM (inactive) | 4.66 µM (inactive) | 17.4 µM (inactive) | 13.3 µM (inactive) | 14.2 µM (inactive) | 10.2 µM (inactive) | 8.91 µM (inactive) | 5.87 µM (inactive) | 12.5 µM (inactive) | 17.3 µM (inactive) | 15.9 µM (inactive) | 26.4 µM (inactive) | 10.8 µM (inactive) | 14.1 µM (inactive) | 16.4 µM (inactive) | 10.4 µM (inactive) | 13.3 µM (inactive) | 5.46 µM (inactive)
CCN(CC)CCCC(C)Nc1ccnc(/C=C/c2ccc(Cl)cc2)c1 (stereo not given) | 3.06 µM (inactive) | 1.95 µM (inactive) | 2.07 µM (inactive) | 0.135 µM (active) | 2.26 µM (inactive) | 10.1 µM (inactive) | 9.08 µM (inactive) | 2.17 µM (inactive) | 3.32 µM (inactive) | 1.63 µM (inactive) | 1.63 µM (inactive) | 3.49 µM (inactive) | 1.84 µM (inactive) | 3.02 µM (inactive) | 1.52 µM (inactive) | 2.69 µM (inactive) | 3.23 µM (inactive) | 1.56 µM (inactive) | 2.11 µM (inactive) | 1.54 µM (inactive)
CCC(C)C(NC(=O)C(CCCCN)NC(=O)C(NC(=O)C(CCC(N)=O)NC(=O)C(N)CCCNC(=N)N)C(C)CC)C(=O)NC(Cc1c[nH]c2ccccc12)C(=O)NC(Cc1ccccc1)C(=O)NC(CCC(N)=O)C(=O)NC(CC(N)=O)C(=O)NC(CCCNC(=N)N)C(=O)NC(CCCNC(=N)N)C(=O)NC(CCSC)C(=O)NC(CCCCN)C(=O)NC(Cc1c[nH]c2ccccc12)C(=O)NC(CCCCN)C(=O)NC(CCCCN)C(=O)N1CCCC1C(=O)NC(C)C(=O)NC(CCCCN)C(=O)NC(CCCNC(=N)N)C(=O)NC(CCCCN)C(=O)NC(CC(C)C)C(=O)NC(Cc1ccccc1)C(=O)NCC(=O)O (stereo not given) (H-RQIKIWFQNRRMKWKKPAKRKLFG-OH; configuration not given here) | 15.9 µM (inactive) | > 25 µM (inactive) | 6.93 µM (inactive) | > 25 µM (inactive) | 21.1 µM (inactive) | > 25 µM (inactive) | > 25 µM (inactive) | > 25 µM (inactive) | > 25 µM (inactive) | > 25 µM (inactive) | > 25 µM (inactive) | > 25 µM (inactive) | > 25 µM (inactive) | > 25 µM (inactive) | > 25 µM (inactive) | 24.7 µM (inactive) | 16.5 µM (inactive) | > 25 µM (inactive) | > 25 µM (inactive) | > 25 µM (inactive)
Cc1c2oc3c(C)ccc(C(=O)N[C@@H]4C(=O)N[C@H](C(C)C)C(=O)N5CCC[C@H]5C(=O)N(C)CC(=O)N(C)[C@@H](C(C)C)C(=O)O[C@H]4C)c3nc-2c(C(=O)N[C@@H]2C(=O)N[C@H](C(C)C)C(=O)N3CCC[C@H]3C(=O)N(C)CC(=O)N(C)[C@@H](C(C)C)C(=O)O[C@H]2C)c(N)c1=O (I: [aThr][dV]P[Sar][NMeV] / II: [aThr][dV]P[Sar][NMeV]; ester I:1-I:C, II:1-II:C; linker I:N-II:N via Actinocin(1to9)) | 0.00148 µM (active) | 0.00275 µM (active) | 0.00231 µM (active) | 0.000492 µM (active) | 0.00187 µM (active) | 0.00219 µM (active) | 0.00393 µM (active) | 0.00217 µM (active) | 0.00371 µM (active) | 0.000506 µM (active) | 0.00361 µM (active) | 0.000759 µM (active) | 0.00217 µM (active) | 0.00203 µM (active) | 0.015 µM (active) | 0.000424 µM (active) | 0.00115 µM (active) | 0.00134 µM (active) | 0.00106 µM (active) | 0.000489 µM (active)
